# Data as given in ChEMBL document CHEMBL4507284, “Data for DCP probe BI-1230” (2021).
# Columns and labels:
# [1] = target: Platelet-derived growth factor receptor alpha (Homo sapiens) (UniProt P16234); conditions: Compound concentration 1000.0 nM
# [2] = target: Ribosomal protein S6 kinase alpha-2 (Homo sapiens) (UniProt Q15349); conditions: Compound concentration 1000.0 nM
# [3] = target: Ephrin type-A receptor 5 (Homo sapiens) (UniProt P54756); conditions: Compound concentration 1000.0 nM
# [4] = target: Serine/threonine-protein kinase DCLK1 (Homo sapiens) (UniProt O15075); conditions: Compound concentration 1000.0 nM
# [5] = target: Serine/threonine-protein kinase 38-like (Homo sapiens) (UniProt Q9Y2H1); conditions: Compound concentration 1000.0 nM
# [6] = target: Hormonally up-regulated neu tumor-associated kinase (Homo sapiens) (UniProt P57058); conditions: Compound concentration 1000.0 nM
# [7] = target: Ephrin type-A receptor 1 (Homo sapiens) (UniProt P21709); conditions: Compound concentration 1000.0 nM
# [8] = target: Mast/stem cell growth factor receptor Kit (Homo sapiens) (UniProt P10721); conditions: Compound concentration 1000.0 nM
# Sequence of Mast/stem cell growth factor receptor Kit (Homo sapiens) (P10721 whole entry): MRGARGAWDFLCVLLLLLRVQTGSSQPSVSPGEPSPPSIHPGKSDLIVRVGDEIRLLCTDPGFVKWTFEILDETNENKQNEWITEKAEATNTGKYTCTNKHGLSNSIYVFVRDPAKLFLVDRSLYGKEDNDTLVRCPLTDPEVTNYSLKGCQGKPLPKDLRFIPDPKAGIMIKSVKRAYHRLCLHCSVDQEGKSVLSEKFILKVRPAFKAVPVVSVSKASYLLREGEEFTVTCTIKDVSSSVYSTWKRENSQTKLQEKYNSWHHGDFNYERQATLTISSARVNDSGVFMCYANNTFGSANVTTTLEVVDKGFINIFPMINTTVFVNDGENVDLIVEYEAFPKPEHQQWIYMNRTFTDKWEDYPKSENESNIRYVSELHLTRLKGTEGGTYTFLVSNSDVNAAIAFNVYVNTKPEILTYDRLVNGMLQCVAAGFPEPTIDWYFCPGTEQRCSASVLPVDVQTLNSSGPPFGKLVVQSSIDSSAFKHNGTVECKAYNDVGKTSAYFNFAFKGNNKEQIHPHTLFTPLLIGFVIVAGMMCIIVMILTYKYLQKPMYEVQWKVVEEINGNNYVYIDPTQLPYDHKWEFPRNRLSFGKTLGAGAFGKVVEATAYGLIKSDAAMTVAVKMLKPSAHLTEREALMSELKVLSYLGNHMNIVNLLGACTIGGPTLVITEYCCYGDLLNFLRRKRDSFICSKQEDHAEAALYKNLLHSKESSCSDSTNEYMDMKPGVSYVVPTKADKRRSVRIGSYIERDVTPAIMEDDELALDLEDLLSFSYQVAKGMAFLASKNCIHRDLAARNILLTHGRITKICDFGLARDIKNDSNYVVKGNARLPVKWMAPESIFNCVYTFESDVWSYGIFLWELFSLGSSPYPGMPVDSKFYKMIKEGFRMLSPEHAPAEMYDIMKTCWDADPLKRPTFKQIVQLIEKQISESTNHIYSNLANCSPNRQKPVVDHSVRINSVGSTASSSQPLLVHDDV
# [9] = target: Serine/threonine-protein kinase TAO1 (Homo sapiens) (UniProt Q7L7X3); conditions: Compound concentration 1000.0 nM
# [10] = target: SRSF protein kinase 3 (Homo sapiens) (UniProt Q9UPE1); conditions: Compound concentration 1000.0 nM
# [11] = target: Interleukin-1 receptor-associated kinase 4 (Homo sapiens) (UniProt Q9NWZ3); conditions: Compound concentration 1000.0 nM
# Sequence of Interleukin-1 receptor-associated kinase 4 (Homo sapiens) (Q9NWZ3 whole entry): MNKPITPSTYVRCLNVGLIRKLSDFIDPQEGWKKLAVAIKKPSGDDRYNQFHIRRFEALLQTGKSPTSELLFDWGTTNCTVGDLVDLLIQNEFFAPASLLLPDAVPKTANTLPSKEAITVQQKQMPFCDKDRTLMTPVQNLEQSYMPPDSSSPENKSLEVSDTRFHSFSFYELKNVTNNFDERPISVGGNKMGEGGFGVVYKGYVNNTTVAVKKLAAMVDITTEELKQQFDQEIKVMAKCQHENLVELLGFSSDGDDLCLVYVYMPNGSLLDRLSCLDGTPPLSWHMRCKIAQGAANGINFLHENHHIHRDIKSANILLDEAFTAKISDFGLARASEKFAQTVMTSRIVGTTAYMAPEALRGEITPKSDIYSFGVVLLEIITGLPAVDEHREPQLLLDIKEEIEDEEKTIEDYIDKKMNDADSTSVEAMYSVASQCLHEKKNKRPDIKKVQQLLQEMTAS
# [12] = target: Insulin-like growth factor 1 receptor (Homo sapiens) (UniProt P08069); conditions: Compound concentration 1000.0 nM
# [13] = target: Cyclin-dependent kinase 17 (Homo sapiens) (UniProt Q00537); conditions: Compound concentration 1000.0 nM
# [14] = target: TGF-beta receptor type-1 (Homo sapiens) (UniProt P36897); conditions: Compound concentration 1000.0 nM
# [15] = target: Tyrosine-protein kinase ABL2 (Homo sapiens) (UniProt P42684); conditions: Compound concentration 1000.0 nM
# [16] = target: Mitogen-activated protein kinase kinase kinase 9 (Homo sapiens) (UniProt P80192); conditions: Compound concentration 1000.0 nM
# [17] = target: Serine/threonine-protein kinase 24 (Homo sapiens) (UniProt Q9Y6E0); conditions: Compound concentration 1000.0 nM
# [18] = target: Serine/threonine-protein kinase 32A (Homo sapiens) (UniProt Q8WU08); conditions: Compound concentration 1000.0 nM
# [19] = target: Ribosomal protein S6 kinase alpha-3 (Homo sapiens) (UniProt P51812); conditions: Compound concentration 1000.0 nM
# [20] = target: D(3) dopamine receptor (Homo sapiens) (UniProt P35462); conditions: Compound concentration 10.0 uM
# [21] = target: Mu-type opioid receptor (Homo sapiens) (UniProt P35372); conditions: Compound concentration 10.0 uM
# Sequence of Mu-type opioid receptor (Homo sapiens) (P35372 whole entry): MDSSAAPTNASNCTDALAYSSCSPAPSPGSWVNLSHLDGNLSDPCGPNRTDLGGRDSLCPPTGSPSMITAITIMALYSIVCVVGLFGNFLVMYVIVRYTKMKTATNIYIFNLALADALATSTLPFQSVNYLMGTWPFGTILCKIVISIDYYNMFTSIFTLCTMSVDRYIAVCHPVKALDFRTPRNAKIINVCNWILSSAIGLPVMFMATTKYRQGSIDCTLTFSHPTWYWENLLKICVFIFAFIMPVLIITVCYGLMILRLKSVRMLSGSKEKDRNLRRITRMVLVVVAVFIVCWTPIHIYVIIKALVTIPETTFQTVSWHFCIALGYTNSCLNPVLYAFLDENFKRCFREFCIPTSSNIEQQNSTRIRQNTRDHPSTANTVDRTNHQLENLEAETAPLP
# [22] = target: Muscle, skeletal receptor tyrosine-protein kinase (Homo sapiens) (UniProt O15146); conditions: Compound concentration 1000.0 nM
# [23] = target: Leukocyte tyrosine kinase receptor (Homo sapiens) (UniProt P29376); conditions: Compound concentration 1000.0 nM
# [24] = target: Mast/stem cell growth factor receptor Kit (Homo sapiens) (UniProt P10721); conditions: Compound concentration 1000.0 nM; remark: listed apart in the source
# [25] = target: Rhodopsin kinase GRK7 (Homo sapiens) (UniProt Q8WTQ7); conditions: Compound concentration 1000.0 nM
# [26] = target: Muscarinic acetylcholine receptor M1 (Homo sapiens) (UniProt P11229); conditions: Compound concentration 10.0 uM
# [27] = target: Macrophage-stimulating protein receptor (Homo sapiens) (UniProt Q04912); conditions: Compound concentration 1000.0 nM
# [28] = target: Ankyrin repeat and protein kinase domain-containing protein 1 (Homo sapiens) (UniProt Q8NFD2); conditions: Compound concentration 1000.0 nM
# [29] = target: Uncharacterized serine/threonine-protein kinase SBK3 (Homo sapiens) (UniProt P0C264); conditions: Compound concentration 1000.0 nM
# [30] = target: Sigma intracellular receptor 2 (Homo sapiens) (UniProt Q5BJF2); conditions: Compound concentration 10.0 uM
# Sequence of Sigma intracellular receptor 2 (Homo sapiens) (Q5BJF2 whole entry): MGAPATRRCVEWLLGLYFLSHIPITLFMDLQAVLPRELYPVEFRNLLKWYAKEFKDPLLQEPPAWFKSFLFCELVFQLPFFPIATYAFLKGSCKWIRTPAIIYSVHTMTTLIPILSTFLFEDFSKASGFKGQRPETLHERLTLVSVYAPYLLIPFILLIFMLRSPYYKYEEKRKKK
# [31] = target: Dual specificity protein kinase TTK (Homo sapiens) (UniProt P33981); conditions: Compound concentration 1000.0 nM
# Sequence of Dual specificity protein kinase TTK (Homo sapiens) (P33981 whole entry): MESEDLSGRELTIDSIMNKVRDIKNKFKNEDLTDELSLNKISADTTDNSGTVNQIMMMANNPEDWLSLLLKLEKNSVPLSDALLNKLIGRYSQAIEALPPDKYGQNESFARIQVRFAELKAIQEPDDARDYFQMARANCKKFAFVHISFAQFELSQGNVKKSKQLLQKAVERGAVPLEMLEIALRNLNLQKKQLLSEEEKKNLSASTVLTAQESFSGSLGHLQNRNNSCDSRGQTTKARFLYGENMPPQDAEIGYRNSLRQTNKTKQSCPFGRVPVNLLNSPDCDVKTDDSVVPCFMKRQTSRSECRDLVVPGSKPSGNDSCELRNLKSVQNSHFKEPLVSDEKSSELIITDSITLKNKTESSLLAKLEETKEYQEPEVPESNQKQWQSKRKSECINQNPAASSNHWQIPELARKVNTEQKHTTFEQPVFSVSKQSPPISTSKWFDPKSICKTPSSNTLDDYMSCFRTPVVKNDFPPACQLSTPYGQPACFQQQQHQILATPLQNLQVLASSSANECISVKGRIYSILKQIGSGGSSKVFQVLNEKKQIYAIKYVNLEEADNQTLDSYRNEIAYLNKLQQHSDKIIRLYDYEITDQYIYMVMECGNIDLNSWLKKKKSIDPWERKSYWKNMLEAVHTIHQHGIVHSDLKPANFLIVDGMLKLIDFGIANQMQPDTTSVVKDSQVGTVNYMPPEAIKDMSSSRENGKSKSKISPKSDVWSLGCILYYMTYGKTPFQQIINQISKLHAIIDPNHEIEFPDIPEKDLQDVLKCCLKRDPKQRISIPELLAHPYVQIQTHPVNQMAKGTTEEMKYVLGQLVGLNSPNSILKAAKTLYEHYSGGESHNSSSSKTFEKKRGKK
# [32] = target: Serine/threonine-protein kinase TBK1 (Homo sapiens) (UniProt Q9UHD2); conditions: Compound concentration 1000.0 nM
# [33] = target: Atypical kinase COQ8B, mitochondrial (Homo sapiens) (UniProt Q96D53); conditions: Compound concentration 1000.0 nM
# Sequence of Atypical kinase COQ8B, mitochondrial (Homo sapiens) (Q96D53 whole entry): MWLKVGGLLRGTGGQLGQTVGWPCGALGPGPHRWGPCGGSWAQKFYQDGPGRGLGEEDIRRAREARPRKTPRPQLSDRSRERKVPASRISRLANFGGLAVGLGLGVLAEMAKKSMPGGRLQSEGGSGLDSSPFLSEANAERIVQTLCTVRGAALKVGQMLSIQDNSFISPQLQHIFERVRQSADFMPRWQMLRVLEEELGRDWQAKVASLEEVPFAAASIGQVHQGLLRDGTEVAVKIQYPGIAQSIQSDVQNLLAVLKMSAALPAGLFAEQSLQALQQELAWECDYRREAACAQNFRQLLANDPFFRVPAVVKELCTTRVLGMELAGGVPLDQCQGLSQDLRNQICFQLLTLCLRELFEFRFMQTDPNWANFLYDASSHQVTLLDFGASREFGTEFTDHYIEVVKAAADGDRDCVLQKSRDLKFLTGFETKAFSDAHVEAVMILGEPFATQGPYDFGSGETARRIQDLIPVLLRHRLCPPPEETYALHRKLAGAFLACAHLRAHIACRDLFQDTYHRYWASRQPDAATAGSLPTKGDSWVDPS
# [34] = target: Mitogen-activated protein kinase 14 (Homo sapiens) (UniProt Q16539); conditions: Compound concentration 1000.0 nM
# [35] = target: Serine/threonine-protein kinase OSR1 (Homo sapiens) (UniProt O95747); conditions: Compound concentration 1000.0 nM
# [36] = target: Mitogen-activated protein kinase 11 (Homo sapiens) (UniProt Q15759); conditions: Compound concentration 1000.0 nM
# [37] = target: Proto-oncogene tyrosine-protein kinase receptor Ret (Homo sapiens) (UniProt P07949); conditions: Compound concentration 1000.0 nM
# [38] = target: Casein kinase I isoform gamma-3 (Homo sapiens) (UniProt Q9Y6M4); conditions: Compound concentration 1000.0 nM
# [39] = target: Discoidin domain-containing receptor 2 (Homo sapiens) (UniProt Q16832); conditions: Compound concentration 1000.0 nM
# [40] = target: Macrophage colony-stimulating factor 1 receptor (Homo sapiens) (UniProt P07333); conditions: Compound concentration 1000.0 nM
# [41] = target: Inhibitor of nuclear factor kappa-B kinase subunit beta (Homo sapiens) (UniProt O14920); conditions: Compound concentration 1000.0 nM
# [42] = target: Serine/threonine-protein kinase 4 (Homo sapiens) (UniProt Q13043); conditions: Compound concentration 1000.0 nM
# Sequence of Serine/threonine-protein kinase 4 (Homo sapiens) (Q13043 whole entry): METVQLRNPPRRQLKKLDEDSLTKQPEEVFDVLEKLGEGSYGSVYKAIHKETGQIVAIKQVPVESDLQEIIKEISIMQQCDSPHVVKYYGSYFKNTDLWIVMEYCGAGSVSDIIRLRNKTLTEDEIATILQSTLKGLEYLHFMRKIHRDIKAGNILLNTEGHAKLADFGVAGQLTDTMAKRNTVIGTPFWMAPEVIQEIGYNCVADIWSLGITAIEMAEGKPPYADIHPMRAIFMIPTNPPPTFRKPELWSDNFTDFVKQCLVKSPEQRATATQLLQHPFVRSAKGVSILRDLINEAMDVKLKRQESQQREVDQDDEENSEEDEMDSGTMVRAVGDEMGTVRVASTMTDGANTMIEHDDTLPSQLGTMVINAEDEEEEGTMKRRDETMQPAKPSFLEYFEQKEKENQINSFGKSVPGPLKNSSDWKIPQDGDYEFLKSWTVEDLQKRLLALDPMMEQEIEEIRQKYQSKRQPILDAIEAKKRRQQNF
# [43] = target: G protein-coupled receptor kinase 3 (Homo sapiens) (UniProt P35626); conditions: Compound concentration 1000.0 nM
# [44] = target: Ephrin type-A receptor 6 (Homo sapiens) (UniProt Q9UF33); conditions: Compound concentration 1000.0 nM
# Sequence of Ephrin type-A receptor 6 (Homo sapiens) (Q9UF33 whole entry): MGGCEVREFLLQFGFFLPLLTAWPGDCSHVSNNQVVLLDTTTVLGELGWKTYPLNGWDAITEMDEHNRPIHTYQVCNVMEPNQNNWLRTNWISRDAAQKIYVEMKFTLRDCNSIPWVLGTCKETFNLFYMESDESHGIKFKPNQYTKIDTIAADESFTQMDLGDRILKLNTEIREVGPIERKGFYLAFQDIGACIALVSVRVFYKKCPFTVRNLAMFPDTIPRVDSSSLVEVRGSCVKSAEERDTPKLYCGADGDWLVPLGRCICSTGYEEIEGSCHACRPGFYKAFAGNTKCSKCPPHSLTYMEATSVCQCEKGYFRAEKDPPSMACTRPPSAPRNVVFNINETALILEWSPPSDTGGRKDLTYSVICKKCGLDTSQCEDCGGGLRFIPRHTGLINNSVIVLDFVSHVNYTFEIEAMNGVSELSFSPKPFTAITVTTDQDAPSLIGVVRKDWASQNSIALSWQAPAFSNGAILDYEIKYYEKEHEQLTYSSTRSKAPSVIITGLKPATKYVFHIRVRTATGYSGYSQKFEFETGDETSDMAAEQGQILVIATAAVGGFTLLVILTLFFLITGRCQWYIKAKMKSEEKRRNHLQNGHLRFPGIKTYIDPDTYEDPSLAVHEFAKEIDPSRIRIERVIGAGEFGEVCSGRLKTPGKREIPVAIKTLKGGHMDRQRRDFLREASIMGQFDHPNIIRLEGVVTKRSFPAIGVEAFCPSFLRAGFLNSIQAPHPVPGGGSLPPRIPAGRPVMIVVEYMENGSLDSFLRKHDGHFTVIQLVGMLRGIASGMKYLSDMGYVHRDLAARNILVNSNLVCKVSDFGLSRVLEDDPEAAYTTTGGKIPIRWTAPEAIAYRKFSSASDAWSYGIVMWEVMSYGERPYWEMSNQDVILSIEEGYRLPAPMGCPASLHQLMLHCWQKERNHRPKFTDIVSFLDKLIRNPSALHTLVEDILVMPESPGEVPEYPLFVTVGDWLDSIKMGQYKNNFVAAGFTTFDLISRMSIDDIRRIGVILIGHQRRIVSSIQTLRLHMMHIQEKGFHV
# [45] = system: Mast/stem cell growth factor receptor Kit (Homo sapiens), P10721 [A829P]; conditions: Compound concentration 1000.0 nM
# Sequence of Mast/stem cell growth factor receptor Kit (Homo sapiens), P10721 [A829P] (P10721 whole entry A829P): as the sequence (P10721 whole entry) above, with A829P counted along it
# [46] = target: Serine/threonine-protein kinase PLK3 (Homo sapiens) (UniProt Q9H4B4); conditions: Compound concentration 1000.0 nM
smiles,measurement,setting,value
COc1ccc2c(O[C@@H]3C[C@H]4C(=O)N[C@]5(C(=O)O)CC5/C=C\CCCCC[C@H](NC(=O)OC5CCCC5)C(=O)N4C3)cc(-c3csc(NC(=O)C(C)C)n3)nc2c1C (some centres not stated) [BI 1230],residual activity,[1],84%
same,residual activity,[2],100%
same,residual activity,[3],97%
same,residual activity,[4],76%
same,residual activity,[5],43%
same,residual activity,[6],100%
same,residual activity,[7],88%
same,residual activity,[8],72%
same,residual activity,[9],96%
same,residual activity,[10],57%
same,residual activity,[11],71%
same,residual activity,[12],98%
same,residual activity,[13],100%
same,residual activity,[14],100%
same,residual activity,[15],98%
same,residual activity,[16],100%
same,residual activity,[17],100%
same,residual activity,[18],78%
same,residual activity,[19],100%
same,inhibition,[20],-9.2%
same,inhibition,[21],16.6%
same,residual activity,[22],91%
same,residual activity,[23],100%
same,residual activity,[24],100%
same,residual activity,[25],87%
same,inhibition,[26],8.82%
same,residual activity,[27],100%
same,residual activity,[28],79%
same,residual activity,[29],99%
same,inhibition,[30],28%
same,residual activity,[31],100%
same,residual activity,[32],86%
same,residual activity,[33],100%
same,residual activity,[34],100%
same,residual activity,[35],82%
same,residual activity,[36],100%
same,residual activity,[37],91%
same,residual activity,[38],100%
same,residual activity,[39],88%
same,residual activity,[40],89%
same,residual activity,[41],83%
same,residual activity,[42],100%
same,residual activity,[43],99%
same,residual activity,[44],100%
same,residual activity,[45],100%
same,residual activity,[46],79%
O=C(N[C@H]1CCCCC/C=C\C2C[C@@]2(C(=O)O)NC(=O)[C@@H]2C[C@@H](Oc3ccncc3)CN2C1=O)OC1CCCC1 (some centres not stated) [BI 1675],residual activity,[1],99%
same,residual activity,[2],99%
same,residual activity,[3],100%
same,residual activity,[4],97%
same,residual activity,[5],80%
same,residual activity,[6],100%
same,residual activity,[7],90%
same,residual activity,[8],84%
same,residual activity,[9],100%
same,residual activity,[10],89%
same,residual activity,[11],88%
same,residual activity,[12],96%
same,residual activity,[13],89%
same,residual activity,[14],100%
same,residual activity,[15],100%
same,residual activity,[16],97%
same,residual activity,[17],81%
same,residual activity,[18],89%
same,residual activity,[19],100%
same,inhibition,[20],12.7%
same,inhibition,[21],-8.64%
same,residual activity,[22],100%
same,residual activity,[23],99%
same,residual activity,[24],91%
same,residual activity,[25],100%
same,inhibition,[26],14.1%
same,residual activity,[27],97%
same,residual activity,[28],100%
same,residual activity,[29],79%
same,inhibition,[30],18.5%
same,residual activity,[31],79%
same,residual activity,[32],100%
same,residual activity,[33],100%
same,residual activity,[34],94%
same,residual activity,[35],75%
same,residual activity,[36],100%
same,residual activity,[37],94%
same,residual activity,[38],100%
same,residual activity,[39],100%
same,residual activity,[40],92%
same,residual activity,[41],91%
same,residual activity,[42],100%
same,residual activity,[43],100%
same,residual activity,[44],100%
same,residual activity,[45],98%
same,residual activity,[46],100%
